Reference: US11612604B2, “Methods of treating cancer with PLK4 inhibitors” (LUDWIG INSTITUTE FOR CANCER RESEARCH LTD, priority 2017, dated 2023)

Molecular target: T1, PLK4 (Homo sapiens, UniProt O00444)
T1 sequence (O00444 1-970): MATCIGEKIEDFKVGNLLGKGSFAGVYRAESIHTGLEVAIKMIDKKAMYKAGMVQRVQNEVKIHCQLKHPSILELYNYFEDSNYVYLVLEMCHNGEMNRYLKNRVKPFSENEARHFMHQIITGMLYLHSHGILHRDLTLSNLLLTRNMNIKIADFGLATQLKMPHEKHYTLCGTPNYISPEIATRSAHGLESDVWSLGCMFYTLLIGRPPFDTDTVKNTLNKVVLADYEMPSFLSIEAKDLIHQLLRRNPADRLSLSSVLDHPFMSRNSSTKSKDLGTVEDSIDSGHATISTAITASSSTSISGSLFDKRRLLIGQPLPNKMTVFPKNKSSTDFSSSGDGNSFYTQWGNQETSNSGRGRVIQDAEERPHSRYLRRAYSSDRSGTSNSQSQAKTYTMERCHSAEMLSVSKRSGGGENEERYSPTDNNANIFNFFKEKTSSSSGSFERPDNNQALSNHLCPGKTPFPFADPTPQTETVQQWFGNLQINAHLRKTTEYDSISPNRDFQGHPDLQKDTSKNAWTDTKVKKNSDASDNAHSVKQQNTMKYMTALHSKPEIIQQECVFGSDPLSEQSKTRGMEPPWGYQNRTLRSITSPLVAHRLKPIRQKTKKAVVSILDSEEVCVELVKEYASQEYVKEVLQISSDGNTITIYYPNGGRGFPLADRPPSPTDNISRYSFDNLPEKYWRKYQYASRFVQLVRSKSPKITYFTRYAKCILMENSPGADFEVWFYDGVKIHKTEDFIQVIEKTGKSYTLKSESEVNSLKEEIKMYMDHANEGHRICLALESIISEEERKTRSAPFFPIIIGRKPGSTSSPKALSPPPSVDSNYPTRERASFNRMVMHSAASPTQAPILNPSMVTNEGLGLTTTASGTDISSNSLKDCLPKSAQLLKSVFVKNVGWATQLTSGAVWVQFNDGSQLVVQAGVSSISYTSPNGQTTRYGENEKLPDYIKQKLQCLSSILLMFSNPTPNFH
Assay: Activity (IC50) of the Table 1 compounds as PLK4 inhibitors
Format: biochemical
Conditions: Table 1, IC50 class

Compound	IC50
Cc1cc(Nc2nc(Sc3ccc(N)cc3)nc(N3CCCCC3)c2C)n[nH]1	< 100 nM
COCCN1CCN(c2nc(Sc3ccc(NC(=O)C4CC4)cc3)nc(Nc3cc(C)[nH]n3)c2C)CC1	< 100 nM
COc1c(Nc2cc(C)[nH]n2)nc(Sc2ccc(S(=O)(=O)Cc3cccc(C(F)(F)F)c3)cc2)nc1N1CCN(CCN(C)C)CC1	< 100 nM
COc1c(Nc2cc(C)[nH]n2)nc(Sc2ccc(S(=O)(=O)Cc3cc(F)ccc3F)cc2)nc1N1CCN(CCN(C)C)CC1	< 100 nM
COc1c(Nc2cc(C)[nH]n2)nc(Sc2ccc(S(=O)(=O)C(C)(C)c3c(F)c(F)cc(F)c3F)cc2F)nc1N1CCNCC1	< 100 nM
COc1c(Nc2cc(C)[nH]n2)nc(Sc2ccc(S(=O)(=O)Cc3cccc([N+](=O)[O-])c3F)cc2F)nc1N1CCOC[C@H]1C	< 100 nM
CC(=O)Nc1ccc(Sc2nc(Nc3cc(C)[nH]n3)c(C)c(N3CCC(N)CC3)n2)cc1	< 100 nM
COc1c(Nc2cc(C)[nH]n2)nc(Sc2ccc(S(=O)(=O)C(C)(C)c3c(F)c(F)cc(F)c3F)cc2F)nc1N1CCC(OC(C)=O)CC1	< 100 nM
COc1c(Nc2cc(C)[nH]n2)nc(Sc2ccc(S(=O)(=O)Cc3cccc(F)c3F)cc2)nc1N1CCN(CCN(C)C)CC1	< 100 nM
COc1c(Nc2cc(C)[nH]n2)nc(Sc2ccc(NC(C)=O)cc2)nc1N1CC(C)N(CCN(C)C)C(C)C1 (stereo not shown)	< 100 nM
COc1c(Nc2cc(C)[nH]n2)nc(Sc2ccc(S(=O)(=O)Cc3cccc([N+](=O)[O-])c3F)cc2F)nc1N1CCNCC1	< 100 nM
Cc1ccc(Sc2nc(Nc3cc(C)[nH]n3)c(C)c(N3CCC(O)CC3)n2)cc1	< 100 nM
COc1c(C)nc(Sc2ccc(NC(=O)C3CC3)cc2)nc1Nc1cc(C)[nH]n1	< 100 nM
COc1c(Nc2cc(C)[nH]n2)nc(Sc2ccc(NC(C)=O)cc2)nc1N1CCC(CCN(C)C)CC1	< 100 nM
COCCC1CCN(c2nc(Sc3ccc(S(=O)(=O)C(C)(C)c4cccc([N+](=O)[O-])c4F)cc3F)nc(Nc3cc(C)[nH]n3)c2OC)CC1	< 100 nM
CC(=O)Nc1ccc(Sc2nc(Nc3cc(C)[nH]n3)c(C)c(N3CCN(CCN4CCOCC4)CC3)n2)cc1	< 100 nM
COc1c(Nc2cc(C)[nH]n2)nc(Sc2ccc(S(=O)(=O)C(F)(F)c3c(F)c(F)cc(F)c3F)cc2F)nc1N1CCOCC1	< 100 nM
COCCN1CCN(c2nc(Sc3ccc(NC(=O)C4CCCC4)cc3)nc(Nc3cc(C)[nH]n3)c2C)CC1	< 100 nM
CCCS(=O)(=O)c1ccc(Sc2nc(Cc3cc(C)[nH]n3)c(OC)c(N3CCN(CCN(C)C)CC3)n2)cc1	< 100 nM
Cc1cc(Nc2nc(Sc3ccc(S(=O)(=O)Cc4ccccc4)cc3)nc(N3CCN(CCN(C)C)CC3)c2C)n[nH]1	< 100 nM
CC(=O)Nc1ccc(Sc2nc(Nc3cc(C)[nH]n3)c(C)c(N3CCCC3)n2)cc1	< 100 nM
COc1c(Nc2cc(C)[nH]n2)nc(Sc2ccc(S(=O)(=O)Cc3ccccc3)cc2)nc1N1CCN(Cc2ccccc2)CC1	< 100 nM
COc1c(Nc2cc(C)[nH]n2)nc(Sc2ccc(NC(C)=O)cc2)nc1N1CCN(C(=O)C(C)C)CC1	< 100 nM
CNCCN1CCN(c2nc(Sc3ccc(NC(C)=O)cc3)nc(Nc3cc(C)[nH]n3)c2OC)CC1	< 100 nM
COc1c(Nc2cc(C)[nH]n2)nc(Sc2ccc(NS(C)(=O)=O)cc2)nc1N1CCN(CCN(C)C)CC1	< 100 nM
COc1c(Nc2cc(C)[nH]n2)nc(Sc2ccc(S(=O)(=O)N(C)C)cc2)nc1N1CCN(CCN(C)C)CC1	< 100 nM
COc1c(Nc2cc(C)[nH]n2)nc(Sc2ccc(S(=O)(=O)C(C)(C)c3c(F)c(F)cc(Cl)c3F)cc2F)nc1N1CCOCC1	< 100 nM
COc1c(Nc2cc(C)[nH]n2)nc(Sc2ccc(NC(C)=O)cc2)nc1N1CCC(O)CC1	< 100 nM

Compound	IC50
COc1c(Nc2cc(C)[nH]n2)nc(Sc2ccc(S(=O)(=O)Cc3ccccc3)cc2)nc1N1CCC(N2CCN(C)CC2)CC1	< 100 nM
CC(=O)Nc1ccc(Sc2nc(Nc3cc(C)[nH]n3)c(C)c(NC3CCNCC3)n2)cc1	< 100 nM
COc1c(Nc2cc(C)[nH]n2)nc(Sc2ccc(S(=O)(=O)CCN(C)C)cc2)nc1N1CCN(CCN(C)C)CC1	< 100 nM
COc1c(Nc2cc(C)[nH]n2)nc(Sc2ccc(S(=O)(=O)C(C)(C)c3cccc([N+](=O)[O-])c3F)cc2F)nc1N1CCOC[C@@H]1CO	< 100 nM
COc1c(Nc2cc(C)[nH]n2)nc(Sc2ccc(S(=O)(=O)C3(c4cccc([N+](=O)[O-])c4F)CC3)cc2F)nc1N1CCC(NC(C)=O)CC1	< 100 nM
COc1c(Nc2cc(C)[nH]n2)nc(Sc2ccc(S(=O)(=O)Cc3ccccc3F)cc2)nc1N1CCN(CCN(C)C)CC1	< 100 nM
COc1c(Nc2cc(C)[nH]n2)nc(Sc2ccc(S(=O)(=O)Cc3cc(F)cc([N+](=O)[O-])c3)cc2)nc1N1CCN(CCN(C)C)CC1	< 100 nM
CCOc1c(Nc2cc(C)[nH]n2)nc(Sc2ccc(NC(=O)C3CC3)cc2)nc1N(C)CC	< 100 nM
COc1c(Nc2cc(C)[nH]n2)nc(Sc2ccc(NC(=O)Cc3cccc([N+](=O)[O-])c3F)cc2F)nc1N1CCOCC1	< 100 nM
COc1c(Nc2cc(C)[nH]n2)nc(Sc2ccc(S(=O)(=O)Cc3ccc(F)cc3)cc2)nc1N1CCN(CCN(C)C)CC1	< 100 nM
COc1c(Nc2cc(C)[nH]n2)nc(Sc2ccc(NC(C)=O)cc2)nc1N1CCN(CCN(C)OC)CC1	< 100 nM
COc1c(Nc2cc(C)[nH]n2)nc(Sc2ccc(NC(C)=O)cc2)nc1C1CCN(CCN2CCN(C)CC2)CC1	100 to 1000 nM
COc1c(Nc2cc(C)[nH]n2)nc(Sc2ccc(S(=O)(=O)C(C)(C)c3cccc([N+](=O)[O-])c3F)cc2F)nc1N1CCC(CCNC(C)=O)CC1	< 100 nM
COc1c(Nc2ncc(C)s2)nc(Sc2ccc(NC(C)=O)cc2)nc1N1CCN(CCN(C)C)CC1	< 100 nM
COCCNc1nc(Sc2ccc(NC(=O)C3CCCC3)cc2)nc(Nc2cc(C)[nH]n2)c1OC	< 100 nM
COc1c(Nc2cc(C)[nH]n2)nc(Sc2ccc(S(=O)(=O)Cc3cc([N+](=O)[O-])ccc3F)cc2)nc1N1CCN(CCN(C)C)CC1	< 100 nM
COc1c(Nc2cc(C)[nH]n2)nc(Sc2ccc(S(=O)(=O)C(C)(C)c3cccc([N+](=O)[O-])c3F)cc2F)nc1N1CCOCC1	< 100 nM
COc1c(Nc2cc(C)[nH]n2)nc(Sc2ccc(NC(C)=O)cc2)nc1N1CCC(C(=O)N(C)C)CC1	< 100 nM
COc1c(Nc2cc(C)[nH]n2)nc(Sc2ccc(NC(C)=O)cc2)nc1N1CCC(F)CC1	< 100 nM
COc1ccc(CS(=O)(=O)c2ccc(Sc3nc(Nc4cc(C)[nH]n4)c(OC)c(N4CCCCC4)n3)c(F)c2)cc1	< 100 nM
CCN(CC)CCN1CCN(c2nc(Sc3ccc(NC(C)=O)cc3)nc(Nc3cc(C)[nH]n3)c2OC)CC1	< 100 nM
CCN(C)c1nc(Sc2ccc(NC(=O)C3CC3)cc2)nc(Nc2cc(C)[nH]n2)c1C	< 100 nM
COc1c(Nc2cc(C)[nH]n2)nc(Sc2ccc(S(=O)(=O)Cc3cccc(C#N)c3)cc2)nc1N1CCN(CCN(C)C)CC1	< 100 nM
COc1c(Nc2cc(C)[nH]n2)nc(Sc2ccc(S(=O)(=O)CCO)cc2)nc1N1CCN(CCN(C)C)CC1	< 100 nM
COc1c(Nc2cc(C)[nH]n2)nc(Sc2ccc(NC(C)=O)cc2)nc1N1CCN(CCN2CCNCC2)CC1	< 100 nM
COc1c(Nc2cc(C)[nH]n2)nc(Sc2ccc(S(=O)(=O)C(F)c3cc(F)cc([N+](=O)[O-])c3F)cc2F)nc1N1CCOCC1 (stereo not shown)	< 100 nM
COc1c(Nc2cc(C)[nH]n2)nc(Sc2ccc(S(=O)(=O)C3(c4cccc([N+](=O)[O-])c4F)CC3)cc2F)nc1N1CCC(CN(C)C)CC1	< 100 nM
